# From US8349619B2, “Method for detecting and analyzing protein interactions in-vivo” (Sygnis Bioscience GmbH & Co. KG, priority 2002, dated 2013)
# Legend:
# [1] = test system: interaction of G-ME2bHLH and V-ND in PC12 20.4 cells; assay: Cre recombinase-based two-hybrid system in PC12 cell line 20.4 with transient addition of TSA, GFP fluorescence; parameters: species or system rat; conditions: 3 μM TSA for 12 h; two days after transfection of G-ME2bHLH and V-ND; without TSA no GFP-positive cells
# From the text: FIG. 8 depicts GFP-fluorescence and phase contrast images of the stable PC12 cell line #20.4 two days after transfection with GV, G-ME2bHLH, V-ND and G-ME2bHLH with V-ND, with addition of TSA. […] After cotransfection of the two-hybrid interaction partners V-ND and G-ME2bHLH, GFP fluorescence is likewise detectable under the TSA culturing conditions (bottom left). Under control conditions, transfection of V-ND or G-ME2bHLH, no GFP fluorescence is detectable (center left).
# As described in example 4, the PC12 cell line 20.4 expresses all components of the Cre-based reporter system in a completely functional manner. In order to test whether the cell line 20.4 can be utilized for application in the two-hybrid system (see FIG. 2), the known interaction partners described in example 3 were analyzed. Two days after cotransfection of the interaction partners G-ME2bHLH and V-ND, no GFP-positive cells were detectable (see FIG. 7, bottom left). After single transfections of G-ME2bHLH and V-ND, GFP-positive cells were likewise not detectable (see FIG. 7, central figures, left). […] Only after cotransfection of the interaction partners GBR2cc and V-GBR1cc, a multiplicity of GFP-positive cells were detected, after single transfection and cotransfection of the cc deletion mutants, GBR2ccDel and V-GBR1ccDel, no GFP-positive cells were microscopically detectable (see FIG. 9, bottom bar).
# PC12 20.4 cells = assay: Cell survival of PC12 20.4 cells after TSA addition (phase contrast images); format: cell-based, rat; conditions: 3 μM TSA for 12 h
# Procedure: As described in example 4, the PC12 cell line 20.4 expresses all components of the Cre-based reporter system in a completely functional manner. In order to test whether the cell line 20.4 can be utilized for application in the two-hybrid system (see FIG. 2), the known interaction partners described in example 3 were analyzed. Two days after cotransfection of the interaction partners G-ME2bHLH and V-ND, no GFP-positive cells were detectable (see FIG. 7, bottom left). After single transfections of G-ME2bHLH and V-ND, GFP-positive cells were likewise not detectable (see FIG. 7, central figures, left). […] Therefore, the same two-hybrid analysis was carried out in the following experiments, after transient addition of trichostatin A (3 μM, for 12 h, Sigma) (FIG. 8). […] After single transfections of G-ME2bHLH and V-ND, no GFP-positive cells were detectable (see FIG. 8, central figures, left). […] The TSA concentration with the best ratio of cell survival and nearly background-free detection of the interaction of G-ME2bHLH and V-ND, was […] for 12 h. […] Only after cotransfection of the interaction partners GBR2cc and V-GBR1cc, a multiplicity of GFP-positive cells were detected, after single transfection and cotransfection of the cc deletion mutants, GBR2ccDel and V-GBR1ccDel, no GFP-positive cells were microscopically detectable (see FIG. 9, bottom bar).
smiles,measurement,setting,value
"CC(/C=C/C(=O)NO)=C\[C@@H](C)C(=O)c1ccc(N(C)C)cc1 [TSA, trichostatin A]",GFP-positive cells detected after transient addition of TSA,[1],a multiplicity of GFP-positive cells were now detected
same,number of surviving cells,PC12 20.4 cells,lower number of surviving cells
